According to patent US11091522B2, “Peptidomimetic macrocycles and uses thereof” (priority 2018, dated 2021):
Like-named read-outs stand apart in the source and are kept apart here.

Tests used:
[1] = In vitro metabolite profile, cryopreserved hepatocytes; format: in vitro ADME, mouse, rat, monkey, human; conditions: similar metabolite profile across species
rat bone marrow = assay: In vivo micronucleus assay
[2] = tested on: phospho-Rb, phospho-FOXM1, p53, p21
MCF7 tumor = format: in vivo; conditions: twice-weekly treatment, dose-dependent TGI
Excerpt: SJSA1 harbors DNA amplification of both MDM2 and CDK4 genes, which neighbor one another on chromosome 12q, while MCF7 harbors a deletion of the CDKN2A gene, the product of which is a natural inhibitor of MDM2 and CDK4. […]

[3] = tested on: human peripheral blood lymphocyte
[4] = Single-dose rat study, clearance and excretion; format: in vivo

CC(=O)N[C@@H](CC(C)C)C(=O)N[C@H](C(=O)N[C@@H](Cc1ccccc1)C(=O)N[C@]1(C)CCCCCC/C=C\CCC[C@@](C)(C(=O)N[C@@H](C)C(=O)N[C@@H](C)C(=O)N[C@@H](C)C(=O)N[C@@H](C)C(=O)N[C@@H](C)C(=O)N[C@H](C)C(N)=O)NC(=O)[C@H](CC(C)C)NC(=O)[C@H](CCC(N)=O)NC(=O)[C@H](C)NC(=O)[C@H](Cc2c[nH]c3ccccc23)NC(=O)[C@H](Cc2ccc(O)cc2)NC(=O)[C@H](CCC(=O)O)NC1=O)[C@@H](C)O [AP1]
major biotransformation pathway [1]: Proteolysis | in vivo micronucleus (rat bone marrow): negative | p53 and p21 ([2]; SJSA1, after washout): sustained p53 and p21 up-regulation | p53 and p21 ([2]; SJSA1, single agent and in combination): up-regulated p53 and p21 | minimum efficacious dose (MED) (MCF7 tumor): 5 mg/kg | chromosomal aberrations [3]: negative | predominant clearance pathway [4]: hepatobiliary metabolism and elimination
